# US11285142B2, “Compositions and methods for identifying and treating dystonia disorders” (DUKE UNIVERSITY, priority 2015, dated 2022)
# Columns and labels:
# [1] = system: WT Torsin1a localization in Flp-In T-REx 293 cells expressing EGFP-WT Torsin1a; assay: Torsin1a localization assay in WT Torsin1a-expressing assay cell line; format: cell-based, human; details: WT Torsin1a-expressing cell line, dose response
# Excerpt: To develop an assay capable of detecting conditions that correct a dystonia cellular phenotype, two human cell lines were generated that stably expressed EGFP-tagged human wild-type Torsin 1A, or delta-E Torsin1a, from a single cDNA copy integrated at a defined genomic site (FIG. 1, panel 1).
# To limit variation in expression levels associated with random integration or transient expression, single copies of either WT or delta-E human TOR1A cDNAs with N-terminal EGFP fusions were inserted at the FRT site in Flp-In™ T-Rex™ 293 cells (Thermo Fisher Scientific #R780-07) via flippase recombinase-mediated cassette exchange according to the manufacturer's recommended protocols. This system includes an inducible expression feature (TetON) that avoids selective pressure for potential toxic effects of chronic expression of mutant proteins (FIG. 1, panel 1). […]
# This approach provides control over expression levels, avoiding the wide variation typically seen with random genomic integration or transient expression approaches. […] The mutant phenotype was measured as the percentage of cells with one or more EGFP puncta using automated high-content imaging analysis (see infra).
# Development and validation of the high-content image analysis and assay performance under high-throughput screening conditions is presented in FIG. 9. […] Automated exposure times for each plate were determined by setting a target saturation of 25% in channel 1 in wells containing tetracycline-induced delta-E cells. Detected cells were gated according to nuclear area, length-to-width ratio, and perimeter-to-area ratio. […] EGFP fluorescence (Ch2: excitation 488 nm; emission 509 nm) was used for puncta detection. Automated exposure times for each plate were determined by setting a target saturation of 35% in channel 2 in wells containing induced delta-E cells. […]
# [2] = system: cortico-striatal synapse LTD (striatal projection neurons); assay: Long-term depression at the cortico-striatal synapse, whole-cell electrophysiology in acute brain slices; format: cell-based, mouse
# Protocol: To directly test these predictions, whole-cell electrophysiology of striatal projection neurons was performed in acute brain slices to induce long-term depression in the presence of eIF2-alpha pathway-modulating drugs. Acute horizontal brain slices from the progeny of heterozygous ΔE Torsin1a knockin×homozygous Drd1a-tdTomato mice (age P15-21) were prepared largely as described in (Trusel et al., 2015, Cell Rep. 13, 1353-65). LTD was induced as in Trusel et al., 2015, with modifications.
# Heterozygous delGAG Torsin1a knockin mice (courtesy of Dr. W. Dauer, University of Michigan) were crossed with homozygous Drd1a-tdTomato mice (Jackson Labs) and the progeny was used at postnatal day 15-21 for experiments. […]
# Single slices were transferred to a recording chamber and superfused continuously with ACSF containing 50 μM picrotoxin at 32° C. and 3-4 mL/min. […] Evoked excitatory postsynaptic potentials (EPSPs) were recorded in the dorsolateral striatum, while stimulating every 30 seconds with a concentric bipolar electrode (FHC) in cortical layer V (see Trusel et al., Cell Reports, 2015). […] Baseline EPSPs were recorded for at least 10 min or until a stable baseline was reached. Data were acquired by pClamp v10 and analyzed using Clampfit v10.4, Origin v8.0, and GraphPad Prism v6.
Compound,"effect on WT Torsin1a localization (cells with punctate Torsin1a, in words) [1]","LTD in WT brain slices ([2]; pre-incubation 5 nM, WT mice)","long-term depression in brain slices of mice heterozygous for DYT1 knockin mutation (delGAG) ([2]; 20 μM, vs vehicle-treated slices)"
O=C(COc1ccc(Cl)cc1)NC1CCC(NC(=O)COc2ccc(Cl)cc2)CC1 (stereo not drawn) [ISRIB],dose-dependent increase,robustly inhibited LTD,
O=C(/C=C/c1ccccc1)NC(NC(=S)Nc1ccc(Cl)cc1)C(Cl)(Cl)Cl (stereo not drawn) [Sal-003],,,restored long-term depression
